IC50 data for 23 compounds are collected here from ChEMBL document CHEMBL1146803, “Structure activity studies of ring E analogues of methyllycaconitine. Part 2: Synthesis of antagonists to the alpha3beta4* nicotinic acetylcholine receptors through modifications to the ester” (Bioorg Med Chem Lett, 2004).

A word on the IC50: it is the concentration that gives 50% inhibition. Read a high IC50 as a need for much substance.

T1 sequence (P30926 whole entry): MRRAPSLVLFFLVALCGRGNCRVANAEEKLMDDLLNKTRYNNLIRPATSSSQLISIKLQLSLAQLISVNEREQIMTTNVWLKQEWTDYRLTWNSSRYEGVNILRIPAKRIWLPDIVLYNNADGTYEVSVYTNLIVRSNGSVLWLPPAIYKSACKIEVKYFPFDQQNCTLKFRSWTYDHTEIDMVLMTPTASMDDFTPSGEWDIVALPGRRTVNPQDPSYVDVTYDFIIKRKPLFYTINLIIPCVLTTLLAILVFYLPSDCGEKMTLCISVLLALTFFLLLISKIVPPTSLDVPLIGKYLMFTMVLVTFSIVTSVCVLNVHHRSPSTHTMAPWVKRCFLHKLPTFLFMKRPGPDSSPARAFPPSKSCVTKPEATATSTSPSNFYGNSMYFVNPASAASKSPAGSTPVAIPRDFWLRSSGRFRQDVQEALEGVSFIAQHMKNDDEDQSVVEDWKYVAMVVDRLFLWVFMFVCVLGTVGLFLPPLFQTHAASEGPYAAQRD
T1 sequence (P32297 whole entry): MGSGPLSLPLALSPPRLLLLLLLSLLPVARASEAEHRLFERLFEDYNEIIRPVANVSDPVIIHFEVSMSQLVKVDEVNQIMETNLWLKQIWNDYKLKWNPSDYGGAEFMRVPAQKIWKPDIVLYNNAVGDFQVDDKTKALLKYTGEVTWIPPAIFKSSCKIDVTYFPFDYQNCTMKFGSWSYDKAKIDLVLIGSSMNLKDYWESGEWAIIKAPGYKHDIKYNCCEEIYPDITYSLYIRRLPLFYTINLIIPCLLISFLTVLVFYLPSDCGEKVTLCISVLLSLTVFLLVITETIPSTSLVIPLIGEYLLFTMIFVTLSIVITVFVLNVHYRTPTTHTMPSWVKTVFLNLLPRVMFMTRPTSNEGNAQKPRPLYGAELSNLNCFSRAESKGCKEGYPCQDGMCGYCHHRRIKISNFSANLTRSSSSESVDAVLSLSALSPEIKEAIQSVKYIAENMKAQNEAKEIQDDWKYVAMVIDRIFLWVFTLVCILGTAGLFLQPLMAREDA

For one assay, the target named is Neuronal acetylcholine receptor subunit alpha-7 (Homo sapiens, UniProt P36544). Put plainly: Affinity for nicotinic acetylcholine receptor alpha7.
Chain of Neuronal acetylcholine receptor subunit alpha-7 (P36544 whole entry): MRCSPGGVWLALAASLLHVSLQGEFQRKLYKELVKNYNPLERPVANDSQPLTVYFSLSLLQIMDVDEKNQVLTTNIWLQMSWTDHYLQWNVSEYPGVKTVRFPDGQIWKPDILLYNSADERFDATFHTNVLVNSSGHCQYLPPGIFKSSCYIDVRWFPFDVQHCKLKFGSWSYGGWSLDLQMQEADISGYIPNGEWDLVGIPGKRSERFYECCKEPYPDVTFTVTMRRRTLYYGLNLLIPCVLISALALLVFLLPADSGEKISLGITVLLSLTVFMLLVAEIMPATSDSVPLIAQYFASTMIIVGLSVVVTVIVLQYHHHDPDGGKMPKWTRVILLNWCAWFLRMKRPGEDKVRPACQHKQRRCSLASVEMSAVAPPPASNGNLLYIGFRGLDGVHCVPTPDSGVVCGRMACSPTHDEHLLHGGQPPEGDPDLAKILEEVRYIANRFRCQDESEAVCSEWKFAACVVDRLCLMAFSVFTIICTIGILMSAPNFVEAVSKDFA
In turn, `CC1CC(=O)N(c2ccccc2C(=O)OCC2CCCN(CCc3ccccc3)C2)C1=O` (centres undefined) displayed an IC50 of 177 µM.

Another assay addresses T1, Neuronal acetylcholine receptor; alpha3/beta4 (Homo sapiens, UniProt P30926+P32297). Put plainly: Inhibitory activity against nicotinic acetylcholine receptor alpha3-beta4. It counts as protein-complex assay.
Compound `COc1cc2c3cc1Oc1cc(ccc1O)C[C@@H]1c4c(cc(OC)c(O)c4Oc4ccc(cc4)C[C@@H]3N(C)CC2)CC[N+]1(C)C` registered an IC50 of 2 µM.
Same read-out and setting: under `C[N+](C)(C)CCCCCCCCCC[N+](C)(C)C` [DECAMETHONIUM] stands approximately 1.7 µM.
On the same count and under the same terms, to `C[N+](C)(C)CCCCCC[N+](C)(C)C` [HEXAMETHONIUM HYDROXIDE] belongs approximately 1.7 µM.

For another assay, the target named is Neuronal acetylcholine receptor subunit alpha-3 (Homo sapiens, UniProt P32297). Put plainly: Inhibitory activity on nicotinic acetylcholine receptor alpha3.
Chain of Neuronal acetylcholine receptor subunit alpha-3 (P32297 whole entry): as the sequence (P32297 whole entry) above
Compound `CC1CC(=O)N(c2ccccc2C(=O)OCC2CCCN(C(C)C)C2)C1=O` (centres undefined) yielded an IC50 of approximately 20 µM.
The same measure, in the same setting: under `CC(C)N1CCCC(COC(=O)c2ccccc2N2C(=O)CCC2=O)C1` (centres undefined) stands approximately 20 µM.

In a further assay the target is T1, Neuronal acetylcholine receptor; alpha3/beta4. The experiment in a line: Effect on alpha3-beta4 neuronal nicotinic acetylcholine receptor-stimulated adrenal catecholamine secretion. The format is functional.
Compound `O=C(OCC1CCCN(CCCc2ccccc2)C1)c1ccccc1F` (centres undefined) came in with an IC50 of 5.2 µM.
Same read-out and setting: to `CCC1CC(=O)N(c2ccccc2C(=O)OCC2CCCN(CCCc3ccccc3)C2)C1=O` (centres undefined) belongs 4.5 µM; to `O=C(OCC1CCCN(CCCc2ccccc2)C1)c1ccc(-c2ccccc2)cc1` (centres undefined), 3 µM; to `CCCCC1CC(=O)N(c2ccccc2C(=O)OCC2CCCN(CCCc3ccccc3)C2)C1=O` (centres undefined), 1.5 µM.
Still for that read-out and setting: under `CC1(C)CC(=O)N(c2ccccc2C(=O)OCC2CCCN(CCCc3ccccc3)C2)C1=O` (centres undefined) stands 7.5 µM.
Same read-out and setting: to `CC1C(=O)N(c2ccccc2C(=O)OCC2CCCN(CCCc3ccccc3)C2)C(=O)C1C` (centres undefined) belongs 6 µM; to `O=C(OCC1CCCN(CCCc2ccccc2)C1)c1ccccc1N1C(=O)c2ccccc2C1=O` (centres undefined), 1.3 µM.
In turn, `O=C(OCC1CCCN(CCCc2ccccc2)C1)c1ccccc1-c1ccccc1` (centres undefined) came in with a half-maximal inhibitory concentration (IC50) of 1.7 µM.
`O=C(OCC1CCCN(CCCc2ccccc2)C1)c1ccccc1C(F)(F)F` (centres undefined) returned an IC50 of 3.2 µM.
On the same count and under the same terms, to `CCCCCCCCC1CC(=O)N(c2ccccc2C(=O)OCC2CCCN(CCCc3ccccc3)C2)C1=O` (centres undefined) belongs 1.3 µM.
On the same count and under the same terms, under `CC1CC(=O)N(c2ccccc2C(=O)OCC2CCCN(CCc3ccccc3)C2)C1=O` (centres undefined) stands 11.4 µM.
Take `O=C(OCC1CCCN(CCCc2ccccc2)C1)c1ccccc1N1C(=O)CC(C2CCCC2)C1=O` (centres undefined): the midpoint of inhibition, the IC50, lay at 1.2 µM. This IC50 is about 9.5-fold lower than that of the compound before.
Same read-out and setting: under `C=CCC1CC(=O)N(c2ccccc2C(=O)OCC2CCCN(CCCc3ccccc3)C2)C1=O` (centres undefined) stands 1.7 µM.
Still for that read-out and setting: to `CC(C)C1CC(=O)N(c2ccccc2C(=O)OCC2CCCN(CCCc3ccccc3)C2)C1=O` (centres undefined) belongs 2.5 µM; to `O=C(OCC1CCCN(CCCc2ccccc2)C1)c1ccccc1N1C(=O)CC(Cc2ccccc2)C1=O` (centres undefined), 1.3 µM.
The same measure, in the same setting: under `CC(=O)Nc1ccccc1C(=O)OCC1CCCN(CCCc2ccccc2)C1` (centres undefined) stands 8.4 µM; under `COc1ccccc1C(=O)OCC1CCCN(CCCc2ccccc2)C1` (centres undefined), 3.2 µM; under `CCN1C[C@]2(COC(=O)c3ccccc3N3C(=O)C[C@H](C)C3=O)CC[C@H](OC)[C@@]34[C@@H]5C[C@H]6[C@H](OC)[C@@H]5[C@](O)(C[C@@H]6OC)[C@](O)([C@@H](OC)[C@H]23)[C@@H]14` [METHYLLYCACONITINE], 2.6 µM.
